Measurements from patent publication US20070043108A1, “Use of equol for ameliorating or preventing neuropsychiatric and neurodegenerative diseases or disorders” (priority 2002, published 2007).
Where “and” joins values, the source holds several entries; their conditions need not be identical. Equal entries are not always repeated.

Key:
[1] = test system: Long-Evans rats, male offspring; test: Example 19: elevated plus maze of adult male offspring after pre- and early postnatal treatment; format: in vivo, rat
Protocol: Pregnant Long-Evans rats were treated via daily subcutaneous injections from gestational day 14 through 20 and during lactation from postnatal day 2 through 25 with: 1) control-DMSO vehicle or, 2) genistein@ 3 mg/day or 3) equol@ 3 mg/day according to the treatment groups. All animals were fed a phytoestrogen-low diet throughout these studies (10 ppm isoflavones). There were no significant differences in maternal body weights just before birth among the treatment groups. […] The maternal and male offspring genistein and equol levels @ 25 days post birth) paralleled that of the treatments administered.
At approximately 90 days of age the male offspring were tested by treatments (control, genistein and equol) in the EPM that was video-taped for 3 minutes and later recorded for the number of entries into—and the percentage of total time spent—on the open arms, as previously described. […] Equol time intervals were 2-fold greater than genistein values and genistein levels were approximately 9-fold greater than controls.

[2] = test system: Adult male Sprague-Dawley rats; test: Example 15: elevated plus maze of equol injected male rats; format: in vivo, rat; details: 0.250 mg/Kg/day sc, seven days, n = 8
Excerpt: The elevated plus maze is a behavioral test used to quantify anxiety-related behavior and identify anxiolytic drugs (Pellow S. et al., J Neurosci Methods, 14:149-147 (1985); Current Protocols In Neuroscience (1997) 8.3.1-8.3.15, John Wiley & Sons. NY, N.Y.). The test relies on the inherent conflict between exploration of a novel environment and avoidance of its aversive features. Normally, animals spend little time and make few entries into the open arms of the maze compared to the closed arms of the maze (Imhof J. T. et al., Behav Brain Res, 56:177-180 (1993). However, animals treated with anxiolytics, such as benzodiazepines (valium), spend more time in the open arms and the number of entries into the open arms reflects a decrease in anxiety-related behaviors (Pellow S. et al., J Neurosci Methods, 14:149-147 (1985); Current Protocols In Neuroscience (1997) 8.3.1-8.3.15, John Wiley & Sons. NY, N.Y.; Chopin P. et al., Psychopharm, 110:409-414 (1993).
Adult male Sprague-Dawley rats receive daily injections of either DMSO, racemic equol (0.250 mg/Kg/day), R-equol (0.250 mg/Kg/day), or S-equol (0.250 mg/Kg/day) in a total volume of 0.3 cc DMSO by subcutaneous injection. At the end of seven consecutive days of treatment the animals are tested in the elevated plus maze in order to quantify anxiety-related behaviors.

AR = biological target: T1, AR (Rattus norvegicus, UniProt P15207); test: Binding to the androgen receptor (prostate supernatant, [3H]DHT)
T1 construct: incubated with prostate supernatant and then passed through the 30 cm column; from tissue; host or cells: prostate supernatant
T1 sequence (P15207 1-902): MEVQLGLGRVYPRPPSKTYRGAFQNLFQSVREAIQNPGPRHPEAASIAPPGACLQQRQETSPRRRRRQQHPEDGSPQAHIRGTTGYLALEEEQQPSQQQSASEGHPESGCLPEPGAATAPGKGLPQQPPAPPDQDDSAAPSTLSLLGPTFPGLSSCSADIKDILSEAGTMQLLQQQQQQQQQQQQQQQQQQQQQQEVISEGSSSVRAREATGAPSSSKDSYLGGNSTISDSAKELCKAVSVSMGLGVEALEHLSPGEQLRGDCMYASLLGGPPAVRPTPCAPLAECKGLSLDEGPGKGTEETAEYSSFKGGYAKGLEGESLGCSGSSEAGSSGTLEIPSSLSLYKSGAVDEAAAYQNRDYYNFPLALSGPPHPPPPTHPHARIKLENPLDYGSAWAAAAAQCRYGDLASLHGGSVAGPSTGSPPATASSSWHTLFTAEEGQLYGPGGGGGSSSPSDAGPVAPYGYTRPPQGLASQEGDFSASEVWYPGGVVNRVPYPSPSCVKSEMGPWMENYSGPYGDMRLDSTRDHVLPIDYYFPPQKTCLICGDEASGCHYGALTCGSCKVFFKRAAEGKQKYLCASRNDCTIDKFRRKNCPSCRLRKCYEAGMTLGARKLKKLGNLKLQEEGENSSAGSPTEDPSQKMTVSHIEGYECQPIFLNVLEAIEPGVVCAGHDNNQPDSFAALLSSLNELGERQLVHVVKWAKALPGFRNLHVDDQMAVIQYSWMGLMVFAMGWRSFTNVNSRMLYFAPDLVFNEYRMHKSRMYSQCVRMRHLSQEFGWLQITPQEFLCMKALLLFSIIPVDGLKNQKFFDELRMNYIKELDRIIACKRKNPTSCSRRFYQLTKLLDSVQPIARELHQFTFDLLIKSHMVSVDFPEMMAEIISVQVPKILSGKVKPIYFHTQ

ERβ = biological target: T2, ERβ (Rattus norvegicus, UniProt Q62986); test: Competition binding of equol enantiomers with [3H]E2 for in vitro translated ERβ
T2 construct: Full length rat ERα expression vector (pcDNA-ERα; RH Price UCSF) and ERβ expression vector (pcDNA-ERβ; T A Brown, Pfizer; made in house; host or cells: TnT-coupled rabbit reticulocyte lysate in vitro translation (Promega)
T2 sequence (Q62986 whole entry): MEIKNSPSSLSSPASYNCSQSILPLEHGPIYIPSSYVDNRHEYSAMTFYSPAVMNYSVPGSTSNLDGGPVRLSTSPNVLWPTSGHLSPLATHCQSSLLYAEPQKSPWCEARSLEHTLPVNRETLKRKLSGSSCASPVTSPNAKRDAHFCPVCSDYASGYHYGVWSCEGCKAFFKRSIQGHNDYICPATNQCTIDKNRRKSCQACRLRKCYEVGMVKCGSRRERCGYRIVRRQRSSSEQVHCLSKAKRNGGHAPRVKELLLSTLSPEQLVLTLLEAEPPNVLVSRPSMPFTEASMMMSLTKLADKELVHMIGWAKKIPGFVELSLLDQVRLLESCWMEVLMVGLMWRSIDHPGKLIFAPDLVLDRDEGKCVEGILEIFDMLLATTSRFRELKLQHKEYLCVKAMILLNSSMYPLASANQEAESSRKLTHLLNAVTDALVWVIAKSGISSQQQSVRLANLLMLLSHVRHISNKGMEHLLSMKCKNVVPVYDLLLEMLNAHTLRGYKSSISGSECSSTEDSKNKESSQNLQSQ
Protocol: (§1) In vitro binding studies were performed to examine the relative affinities of S— and R-enantiomeric equol with the estrogen receptors ERα and ERβ.
(§2) Synthesis of Hormone Receptor Proteins: Full length rat ERα expression vector (pcDNA-ERα; RH Price UCSF) and ERβ expression vector (pcDNA-ERβ; T A Brown, Pfizer, Groton, […].) were used to synthesize hormone receptors in vitro using the TnT-coupled reticulocyte lysate system (Promega, Madison, Wis.) with T7-RNA polymerase, during a 90 min reaction at 30° C. Translation reaction mixtures were stored at −80° C. until further use.
(§3) Saturation isotherms: In order to calculate and establish the binding affinity of the S-equol and R-equol enantiomers for ERα and ERβ, 100 μL aliquots of reticulocyte lysate supernatant were incubated at optimal time and temperature; 90 min at room temperature (ERβ) and 18 hrs at 4° C. (ERα), with increasing (0.01-100 nm) concentrations of [3H] […] These times were determined empirically and represent optimal binding of receptor with estrogen. Nonspecific binding was assessed using a 300-fold excess of the ER agonist diethylstilbestrol, in parallel tubes. Following incubation, bound and unbound [3H]E2 were separated by passing the incubation reaction through a 1 mL lipophilic Sephadex LH-20 (Sigma-Aldrich Co., Saint Louis, Mo.) column Columns were constructed by packing a disposable pipette tip (1 mL; Labcraft, Curtin Matheson Scientific, Inc, Houston, Tex.) with TEGMD (10 mm Tris-Cl, 1.5 mm EDTA, 10% glycerol, 25 mm molybdate, and 1 mm dithiothreitol, pH 7.4)-saturated Sephadex according to previously published protocols (Wanda et al., 1986; O'Keefe and Handa, 1990). For chromatography, the columns were re-equilibrated with TEGMD (100 μL), and the incubation reactions were added individually to each column and allowed to incubate on the column for an additional 30 min. Following this incubation, 600 μL of TEGMD were added to each column, flow-through was collected, 4 mL scintillation fluid was added, and samples were counted (5 min each) in an 2900 TR Packard scintillation counter (Packard Bioscience, Meriden, Conn.).
(§4) Competition binding studies were used to assess the estrogenic properties of equol's S-equol and R-equol enantiomers. Based on the ability of S and R to compete with [3H]

[3] = test system: Adult male Sprague-Dawley rats; test: Example 3: prostate, epididymis and body weight gain in male rats treated with racemic, R- or S-equol; format: in vivo, rat; details: 0.25 mg/kg/day sc, seven days
Protocol: Adult male Sprague-Dawley rats are randomly assigned to […] groups and receive daily injections of either DMSO, a racemic mixture of equol at 0.250 mg/kg/day), R-equol at 0.250 mg/kg/day, or S-equol at 0.250 mg/kg/day. The total volume of each injection is 0.3 cc, administered sc at the nape of the rat's neck. After seven consecutive days of treatment, the rats are killed and the body weight gain during the injection period is determined.

ERα = biological target: T3, ERα (Rattus norvegicus, UniProt P06211); test: Competition binding of equol enantiomers with [3H]E2 for in vitro translated ERα
T3 construct: Full length rat ERα expression vector (pcDNA-ERα; RH Price UCSF); made in house; host or cells: TnT-coupled rabbit reticulocyte lysate in vitro translation (Promega)
T3 sequence (P06211 1-600): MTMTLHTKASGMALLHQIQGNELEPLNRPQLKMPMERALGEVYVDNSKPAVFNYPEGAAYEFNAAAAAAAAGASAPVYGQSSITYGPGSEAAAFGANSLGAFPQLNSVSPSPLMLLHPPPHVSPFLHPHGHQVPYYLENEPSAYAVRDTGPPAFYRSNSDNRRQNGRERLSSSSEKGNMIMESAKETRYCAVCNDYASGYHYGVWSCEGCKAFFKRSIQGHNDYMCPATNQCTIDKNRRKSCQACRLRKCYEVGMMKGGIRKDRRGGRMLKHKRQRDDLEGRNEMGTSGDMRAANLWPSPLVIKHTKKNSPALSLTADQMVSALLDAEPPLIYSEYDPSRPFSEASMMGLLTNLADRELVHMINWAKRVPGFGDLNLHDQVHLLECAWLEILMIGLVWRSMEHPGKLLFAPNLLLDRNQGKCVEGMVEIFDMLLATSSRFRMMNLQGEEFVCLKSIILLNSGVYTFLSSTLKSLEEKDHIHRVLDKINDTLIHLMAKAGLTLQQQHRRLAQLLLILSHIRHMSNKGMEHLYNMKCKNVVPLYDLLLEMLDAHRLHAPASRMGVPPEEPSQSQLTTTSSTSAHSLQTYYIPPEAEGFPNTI
Protocol: as §1, §2, §3, §4

GDX males = test: Examples 5 and 6: gonadectomized (GDX) male rats treated with DHTP, equol or both; histology; format: in vivo, rat
Protocol: One week following arrival, animals are gonadectomized (GDX) under isoflurane anesthesia and allowed to recover for 7 days. Following recovery, animals are assigned to the following groups 1) DMSO, 2) DHTP (2 mg/1 kg), 3) racemic equol (0.25 mg/kg), or 4) both DHTP and racemic equol. Injections are given subcutaneously daily for 4 days. Animals are killed via decapitation and trunk blood and tissues are collected for analysis.
Tissues, including prostate, testes and epididymis, are removed from the animal, dissected free of fat and connective tissues, weighed, fixed by immersion in 4% paraformaldehyde, and then sectioned at 15 μm on a cryostat. Tissue sections are mounted on charged slides (Superfrost Plus, Fisher Scientific, Pittsburgh, Pa.) prewarmed to 23° C., and stained with hematoxylin and eosin (H&E), dehydrated in ascending alcohol and cleared with xylene.

[4] = 3 mg/day sc to dams, offspring tested at about 90 days
[5] = competition with [3H]E2, in vitro translated ER

O=c1c(-c2ccc(O)cc2)coc2cc(O)cc(O)c12 [genistein]
body weights at birth vs controls ([1]; 3 mg/day sc to dams from gestational day 14): slightly (but not significantly) higher | entries into the open arms vs controls [1, 4]: not significantly different | time in the open arms vs controls [1, 4]: significantly greater | open arm time intervals, fold greater than controls ([1]; offspring tested at about 90 days): approximately 9 fold

Oc1ccc([C@H]2COc3cc(O)ccc3C2)cc1 [S-equol]
Center Area [2]: 27.5 ± 4.1 s | Open Arm Time [2]: 33.6 ± 7.0 s | binding to the androgen receptor (AR): does not bind the androgen receptor | affinity for ERβ, fold less (ERβ): approximately 5 fold | binding to ERβ relative to that of 17β-estradiol (ERβ): approximately 20% | Kd (ERβ; as stated in the background section): 0.7 nM | Kd (ERβ; [5]): 0.73 ± 0.2 nM | Body Wt Gain (g) [3]: 56.1 (±3.1) g | Epididymis (g) [3]: 0.86 (±0.05) g | Prostate (g) [3]: 0.35 (±0.03) g | relative binding affinity for ERα compared with 17β-estradiol, fold less (ERα): 49.2 fold and 49 fold | Kd (ERα; [5]): 6.41 ± 1.01 nM

CCC(=O)O[C@H]1CC[C@H]2[C@@H]3CC[C@H]4CC(=O)CC[C@]4(C)[C@H]3CC[C@]12C [DHTP, DHT propionate, reference compound]
LH (GDX males; GDX males, given alone, vs DMSO): significantly decreased | prostate weight (GDX males; GDX males, given alone, vs vehicle-treated GDX): significant increase | plasma 5α-DHT (GDX males; GDX, DHTP 2 mg/kg sc daily for 4 days): significant elevations
